Results as given in patent publication US20260365670A1, “EGFR INHIBITORS AND USES THEREOF” (DIZAL (JIANGSU) PHARMACEUTICAL CO., LTD., priority 2022, published 2026).
pIC50: −log10 of the molar value. Where two headings read alike, the source gives them in different places.

Key:
EGFR[T790M/C797S/L858R] = target: T1, EGFR[T790M/C797S/L858R] (Homo sapiens, UniProt P00533, C797S/L858R/T790M); assay: Inhibition of EGFR[T790M/C797S/L858R] biochemical enzymatic activity (HTRF); conditions: 1 mM ATP; for IC50: EGFR T790M-C797S-L858R, 1 h, room temperature, read-out: IC50 (nM) @T790M- C797S - L858R; for pIC50: EGFR[T790M/C797S/L858R], 1 h at room temperature, read-out: IC50 @T790M- C797S - L858R
T1 construct: purchased Carna Bio
In short: (§1)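 HTRF kinase assay: each EGFR enzyme phosphorylated 1 μM biotinylated TK substrate with 1 mM ATP in buffer containing 5 mM MgCl2, 1 mM MnCl2, 0.01% CHAPS, 1 mM DTT, 0.5% DMSO. After 1 h at room temperature, EDTA detection mix stopped the reaction. IC50 came from a four-parameter logistic fit of the 665/615 nm ratio.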

[1] = target: T2, EGFR[T790M/C797S/d746-750] (Homo sapiens, UniProt P00533, C797S/DEL746-750/T790M); assay: Inhibition of EGFR[T790M/C797S/d746-750] biochemical enzymatic activity (HTRF); conditions: for IC50: EGFR T790M-C797S-Del19, 1 mM ATP, 1 h, room temperature, read-out: IC50 (nM) @T790M - C797S - Del19; for pIC50: EGFR[T790M/C797S/d746-750], 1 mM ATP, 1 h at room temperature, read-out: IC50 @T790M - C797S - Del19
T2 construct: purchased Carna Bio
In short: as §1

EGFR Exon19Del/T790M = target: T3, EGFR Exon19Del/T790M (Homo sapiens, UniProt P00533, DEL746-750/T790M); assay: Inhibition of EGFR Exon19Del/T790M biochemical enzymatic activity (HTRF); conditions: 1 mM ATP; for IC50: EGFR Del19-T790M, 1 h, room temperature, read-out: IC50 (nM) @Del19-T790M; for pIC50: EGFR Exon19Del/T790M, 1 h at room temperature, read-out: IC50 @Del19-T790M
T3 construct: purchased Carna Bio
In short: as §1

EGFR Exon19Del = target: T4, EGFR Exon19Del (Homo sapiens, UniProt P00533, DEL746-750); assay: Inhibition of EGFR Exon19Del biochemical enzymatic activity (HTRF); conditions: read-out: IC50 @Del19
T4 construct: purchased Carna Bio
In short: as §1

PC-9 = assay: Cell proliferation assay, PC-9 cells (CellTiter-Glo, 72 hours); assay type: cell-based; conditions: PC9 cells
In short: (§2)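 Seed Ba/F3 at 5000 cells/well and PC-9 at 500 cells/well (10% FBS RPMI1640); incubate overnight; add compound dilution series; read a G0 plate; incubate; read G3; GI50 from best-fit curve.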

[2] = tested on: Ba/F3 cells expressing EGFR mutations; assay: Cell proliferation assay, Ba/F3 cells expressing EGFR mutations (CellTiter-Glo, 72 hours); assay type: cell-based
In short: as §2

EGFR L858R/T790M = target: T5, EGFR L858R/T790M (Homo sapiens, UniProt P00533, L858R/T790M); assay: Inhibition of EGFR L858R/T790M biochemical enzymatic activity (HTRF); conditions: 1 mM ATP; for IC50: EGFR L858R-T790M, 1 h, room temperature, read-out: IC50 (nM) @L858R-T790M; for pIC50: EGFR L858R/T790M, 1 h at room temperature, read-out: IC50 @L858R-T790M
T5 construct: purchased Carna Bio
In short: as §1

EGFR (d746-750 C797S) = target: T6, EGFR (d746-750 C797S) (Homo sapiens, UniProt P00533, C797S/DEL746-750); assay: Inhibition of EGFR (d746-750 C797S) biochemical enzymatic activity (HTRF); conditions: 1 mM ATP; for IC50: EGFR Del19-C797S, 1 h, room temperature, read-out: IC50 (nM) @Del19-C797S; for pIC50: EGFR (d746-750 C797S), 1 h at room temperature, read-out: IC50 @Del19-C797S
T6 construct: purchased signalchem
In short: as §1

EGFR L858R = target: T7, EGFR L858R (Homo sapiens, UniProt P00533, L858R); assay: Inhibition of EGFR L858R biochemical enzymatic activity (HTRF); conditions: 1 mM ATP; for IC50: 1 h, room temperature, read-out: IC50 (nM) @L858R; for pIC50: 1 h at room temperature, read-out: IC50 @L858R
T7 construct: purchased Carna Bio
In short: as §1

EGFR wild type = target: T8, EGFR wild type (Homo sapiens, UniProt P00533); assay: Inhibition of EGFR wild type biochemical enzymatic activity (HTRF); conditions: 1 mM ATP; for IC50: EGFR WT, 1 h, room temperature, read-out: IC50 (nM) @WT; for pIC50: EGFR wild type, 1 h at room temperature, read-out: IC50 @WT
T8 construct: purchased Carna Bio
In short: as §1

EGFR (C797S L858R) = target: T9, EGFR (C797S L858R) (Homo sapiens, UniProt P00533, C797S/L858R); assay: Inhibition of EGFR (C797S L858R) biochemical enzymatic activity (HTRF); conditions: 1 mM ATP; for IC50: EGFR L858-C797S, 1 h, room temperature, read-out: IC50 (nM) @L858-C797S; for pIC50: EGFR (C797S L858R), 1 h at room temperature, read-out: IC50 @L858-C797S
T9 construct: purchased signalchem
In short: as §1

[3] = EGFR Del19, 1 mM ATP, 1 h, room temperature
[4] = CellTiter-Glo, read-out: PC9 GI50
[5] = BaF3 cells, EGFR DEL19-C797S, CellTiter-Glo, read-out: DEL19-C797S/BaF3 GI50
[6] = BaF3 cells, EGFR DEL19-T790-C797S, CellTiter-Glo, read-out: DEL19-T790-C797S/BaF3 GI50
[7] = BaF3 cells, EGFR L858R, CellTiter-Glo, read-out: L858R/BaF3 GI50
[8] = BaF3 cells, EGFR L858R-C797S, CellTiter-Glo, read-out: L858R-C797S/BaF3 GI50
[9] = BaF3 cells, EGFR L858R-T790-C797S, CellTiter-Glo, read-out: L858R-T790-C797S/BaF3 GI50
[10] = BaF3 cells, EGFR L858R-T790M, CellTiter-Glo, read-out: L858R-T790M/BaF3 GI50
[11] = EGFR DEL19-T790M, CellTiter-Glo, read-out: DEL19-T790M GI50
[12] = EGFR Exon19Del, 1 mM ATP, 1 h at room temperature
[13] = BaF3 cells, EGFR DEL19 - C797S, read-out: GI50 DEL19 - C797S/BaF3
[14] = BaF3 cells, EGFR DEL19 - T790-C797S, read-out: GI50 DEL19 - T790-C797S/BaF3
[15] = BaF3 cells, EGFR L858R - C797S, read-out: GI50 L858R - C797S/BaF3
[16] = BaF3 cells, EGFR L858R - T790-C797S, read-out: GI50 L858R - T790-C797S/BaF3
[17] = BaF3 cells, EGFR L858R - T790M, read-out: GI50 L858R - T790M/BaF3
[18] = BaF3 cells, EGFR L858R, read-out: GI50 L858R/BaF3
[19] = EGFR DEL19 - T790M, read-out: GI50 DEL19 - T790M

T9 sequence (P00533 25-1210 C797S/L858R): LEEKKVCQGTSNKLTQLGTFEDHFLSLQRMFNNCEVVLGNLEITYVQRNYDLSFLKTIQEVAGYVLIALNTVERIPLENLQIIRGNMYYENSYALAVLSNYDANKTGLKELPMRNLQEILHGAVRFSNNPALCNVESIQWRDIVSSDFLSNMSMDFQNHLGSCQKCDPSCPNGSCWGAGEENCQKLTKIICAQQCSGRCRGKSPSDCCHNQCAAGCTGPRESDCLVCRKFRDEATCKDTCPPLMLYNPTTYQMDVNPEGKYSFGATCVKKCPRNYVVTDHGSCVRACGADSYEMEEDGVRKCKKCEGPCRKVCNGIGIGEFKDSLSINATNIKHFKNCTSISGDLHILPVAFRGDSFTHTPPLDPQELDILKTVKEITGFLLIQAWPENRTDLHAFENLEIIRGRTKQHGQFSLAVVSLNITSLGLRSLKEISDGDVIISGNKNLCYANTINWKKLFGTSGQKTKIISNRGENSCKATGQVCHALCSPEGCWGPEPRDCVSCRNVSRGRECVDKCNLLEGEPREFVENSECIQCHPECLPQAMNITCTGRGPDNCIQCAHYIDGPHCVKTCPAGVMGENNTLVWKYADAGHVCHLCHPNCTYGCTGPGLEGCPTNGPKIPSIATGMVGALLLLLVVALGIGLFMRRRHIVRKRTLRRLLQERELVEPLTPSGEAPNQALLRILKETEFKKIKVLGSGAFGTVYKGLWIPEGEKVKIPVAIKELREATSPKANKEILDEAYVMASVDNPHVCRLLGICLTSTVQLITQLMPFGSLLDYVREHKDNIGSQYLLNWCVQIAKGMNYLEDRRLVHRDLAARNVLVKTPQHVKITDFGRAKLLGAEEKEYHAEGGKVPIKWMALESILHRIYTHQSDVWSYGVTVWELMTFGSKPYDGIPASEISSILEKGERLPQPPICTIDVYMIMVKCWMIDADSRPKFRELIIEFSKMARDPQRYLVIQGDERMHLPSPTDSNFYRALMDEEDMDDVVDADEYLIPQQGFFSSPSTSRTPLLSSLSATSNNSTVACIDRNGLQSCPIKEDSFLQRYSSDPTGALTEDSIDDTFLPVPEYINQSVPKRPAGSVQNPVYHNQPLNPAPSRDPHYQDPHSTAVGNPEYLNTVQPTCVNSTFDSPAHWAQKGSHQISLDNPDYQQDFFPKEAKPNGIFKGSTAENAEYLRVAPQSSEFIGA
T6 sequence (P00533 with tags, fused parts or gaps DEL746-750/C797S limits assumed): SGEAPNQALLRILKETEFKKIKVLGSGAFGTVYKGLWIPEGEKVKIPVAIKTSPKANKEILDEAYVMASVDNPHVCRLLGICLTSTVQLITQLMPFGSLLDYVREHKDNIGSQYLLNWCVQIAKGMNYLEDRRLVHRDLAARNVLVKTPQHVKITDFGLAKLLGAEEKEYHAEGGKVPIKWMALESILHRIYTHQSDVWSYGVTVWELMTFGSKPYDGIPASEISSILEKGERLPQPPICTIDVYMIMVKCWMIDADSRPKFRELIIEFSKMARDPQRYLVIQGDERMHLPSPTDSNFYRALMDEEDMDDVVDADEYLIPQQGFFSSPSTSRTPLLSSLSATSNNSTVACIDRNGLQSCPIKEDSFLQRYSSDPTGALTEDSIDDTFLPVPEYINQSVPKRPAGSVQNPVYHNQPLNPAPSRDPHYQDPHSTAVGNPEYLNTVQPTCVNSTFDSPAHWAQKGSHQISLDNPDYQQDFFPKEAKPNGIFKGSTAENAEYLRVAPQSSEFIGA
T2 sequence (P00533 with tags, fused parts or gaps DEL746-750/T790M/C797S limits assumed): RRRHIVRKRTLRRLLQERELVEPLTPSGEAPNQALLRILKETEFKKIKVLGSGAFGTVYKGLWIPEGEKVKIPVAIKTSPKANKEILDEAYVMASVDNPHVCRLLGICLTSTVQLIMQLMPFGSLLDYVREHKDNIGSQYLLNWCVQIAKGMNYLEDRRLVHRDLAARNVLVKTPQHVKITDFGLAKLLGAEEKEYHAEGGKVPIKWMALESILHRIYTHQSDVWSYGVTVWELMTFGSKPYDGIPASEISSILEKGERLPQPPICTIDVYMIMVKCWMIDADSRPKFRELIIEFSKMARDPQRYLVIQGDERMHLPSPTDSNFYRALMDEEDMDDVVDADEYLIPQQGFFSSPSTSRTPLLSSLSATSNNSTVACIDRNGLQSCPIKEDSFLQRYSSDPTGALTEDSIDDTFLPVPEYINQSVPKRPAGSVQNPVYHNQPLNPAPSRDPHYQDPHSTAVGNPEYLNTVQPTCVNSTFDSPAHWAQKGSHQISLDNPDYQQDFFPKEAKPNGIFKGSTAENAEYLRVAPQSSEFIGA
T1 sequence (P00533 25-1210 T790M/C797S/L858R): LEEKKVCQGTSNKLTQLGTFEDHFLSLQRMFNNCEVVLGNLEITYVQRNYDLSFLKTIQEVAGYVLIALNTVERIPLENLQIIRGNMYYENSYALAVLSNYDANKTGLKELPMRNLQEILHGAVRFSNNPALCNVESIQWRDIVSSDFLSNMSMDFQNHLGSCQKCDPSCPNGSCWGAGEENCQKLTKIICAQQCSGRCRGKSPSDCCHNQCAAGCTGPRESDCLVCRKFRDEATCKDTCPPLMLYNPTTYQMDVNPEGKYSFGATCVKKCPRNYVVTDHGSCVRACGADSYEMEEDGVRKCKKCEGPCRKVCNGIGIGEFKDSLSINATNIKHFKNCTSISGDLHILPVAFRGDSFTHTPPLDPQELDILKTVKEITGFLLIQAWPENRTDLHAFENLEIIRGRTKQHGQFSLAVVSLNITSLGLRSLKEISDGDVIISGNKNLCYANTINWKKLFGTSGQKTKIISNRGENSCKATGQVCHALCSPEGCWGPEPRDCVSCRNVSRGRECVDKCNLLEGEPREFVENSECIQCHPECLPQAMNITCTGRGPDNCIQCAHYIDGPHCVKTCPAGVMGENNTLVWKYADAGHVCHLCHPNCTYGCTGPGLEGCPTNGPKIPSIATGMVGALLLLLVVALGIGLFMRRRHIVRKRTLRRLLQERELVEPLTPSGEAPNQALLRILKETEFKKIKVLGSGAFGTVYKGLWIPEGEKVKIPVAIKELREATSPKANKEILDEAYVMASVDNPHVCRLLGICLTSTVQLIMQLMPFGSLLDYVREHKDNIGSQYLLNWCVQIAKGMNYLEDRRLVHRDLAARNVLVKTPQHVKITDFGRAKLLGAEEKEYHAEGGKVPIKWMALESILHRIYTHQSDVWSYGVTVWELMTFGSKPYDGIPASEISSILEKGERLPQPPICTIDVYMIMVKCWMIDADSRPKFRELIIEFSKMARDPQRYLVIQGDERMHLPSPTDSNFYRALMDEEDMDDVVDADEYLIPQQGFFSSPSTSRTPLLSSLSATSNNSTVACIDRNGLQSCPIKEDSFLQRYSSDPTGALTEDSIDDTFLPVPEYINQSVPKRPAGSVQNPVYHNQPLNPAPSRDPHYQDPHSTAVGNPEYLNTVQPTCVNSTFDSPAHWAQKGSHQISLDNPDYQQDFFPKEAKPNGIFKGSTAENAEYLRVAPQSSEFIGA
T5 sequence (P00533 25-1210 T790M/L858R): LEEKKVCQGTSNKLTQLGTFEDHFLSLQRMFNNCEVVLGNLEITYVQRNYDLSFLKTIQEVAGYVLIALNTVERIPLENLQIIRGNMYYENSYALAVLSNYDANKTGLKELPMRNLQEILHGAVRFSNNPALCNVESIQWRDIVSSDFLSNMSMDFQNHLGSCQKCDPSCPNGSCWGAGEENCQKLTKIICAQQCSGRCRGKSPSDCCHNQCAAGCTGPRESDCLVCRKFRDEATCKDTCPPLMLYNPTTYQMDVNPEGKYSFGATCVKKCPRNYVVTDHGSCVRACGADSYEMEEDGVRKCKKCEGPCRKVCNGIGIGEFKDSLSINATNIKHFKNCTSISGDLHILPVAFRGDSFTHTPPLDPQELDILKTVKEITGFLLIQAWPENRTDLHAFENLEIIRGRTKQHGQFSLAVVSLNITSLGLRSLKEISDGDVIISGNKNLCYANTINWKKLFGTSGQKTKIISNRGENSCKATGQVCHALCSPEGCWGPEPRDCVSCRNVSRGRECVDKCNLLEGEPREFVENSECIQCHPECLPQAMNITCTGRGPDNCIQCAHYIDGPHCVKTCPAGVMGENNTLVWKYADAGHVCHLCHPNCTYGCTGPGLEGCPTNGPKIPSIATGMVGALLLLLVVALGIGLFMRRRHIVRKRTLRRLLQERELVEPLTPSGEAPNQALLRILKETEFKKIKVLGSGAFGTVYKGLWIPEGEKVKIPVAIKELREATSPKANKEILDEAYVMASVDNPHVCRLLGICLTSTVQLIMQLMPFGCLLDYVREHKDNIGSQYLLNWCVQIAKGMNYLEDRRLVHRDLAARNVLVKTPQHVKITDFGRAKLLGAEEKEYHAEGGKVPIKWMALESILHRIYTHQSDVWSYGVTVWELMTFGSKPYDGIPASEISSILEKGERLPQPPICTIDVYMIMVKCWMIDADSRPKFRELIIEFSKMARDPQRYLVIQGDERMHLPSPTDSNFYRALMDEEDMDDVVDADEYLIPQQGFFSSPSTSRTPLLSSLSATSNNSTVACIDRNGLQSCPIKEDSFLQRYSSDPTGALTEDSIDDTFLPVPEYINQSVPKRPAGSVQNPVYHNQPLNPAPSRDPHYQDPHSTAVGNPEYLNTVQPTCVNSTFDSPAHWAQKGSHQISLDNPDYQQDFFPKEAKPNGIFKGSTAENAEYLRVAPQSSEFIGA

IC50 (EGFR[T790M/C797S/L858R]) [nM] | IC50 [1] [nM] | IC50 (EGFR Exon19Del/T790M) [nM] | pIC50 (EGFR Exon19Del; [3]) | GI50 (PC-9; [4]) [nM] | GI50 [2, 5] [nM] | GI50 [2, 6] [nM] | GI50 [2, 7] [nM] | GI50 [2, 8] [nM] | GI50 [2, 9] [nM] | GI50 [2, 10] [nM] | GI50 [2, 11] [nM] | IC50 (EGFR L858R/T790M) [nM] | IC50 (EGFR (d746-750 C797S)) [nM] | IC50 (EGFR L858R) [nM] | IC50 (EGFR wild type) [nM] | IC50 (EGFR (C797S L858R)) [nM] | pIC50 (EGFR[T790M/C797S/L858R]) | pIC50 [1] | pIC50 (EGFR Exon19Del/T790M) | other results | Compound
> 5000 | > 5000 | > 5000 | 6.16 | 989 | 50 | 120 | 181 | 244 | 264 | 367 | 123 | > 5000 | 599 | 2120 | > 5000 | 2820 |  |  |  |  | CN1CCOC2(C1)CN(c1ccc3nc4n(c3c1)C13CCC(CN(CCOc5c(cnn5C)-c5cc(cn(C)c5=O)C(=O)N4)C1)C3)C2 (single isomer, unassigned) [Example A86A]
> 5000 | > 5000 | > 5000 | 6.34 | 341 | 102 | 326 | 320 | 125 | 368 | 375 | 212 | > 5000 | 464 | 1110 | > 5000 | > 5000 |  |  |  |  | CN1CCC2(CC1)CN(c1ccc3nc4n(c3c1)C13CCC(CN(CCOc5c(cnn5C)-c5cc(cn(C)c5=O)C(=O)N4)C1)C3)C2 (single isomer, unassigned) [Example A77A]
 |  |  |  |  |  |  |  |  |  |  |  |  |  |  |  |  | < 5.30 | 5.34 | < 5.30 | pIC50 (EGFR Exon19Del; [12]): < 5.30; GI50 (PC-9; read-out: GI50 PC9): 2300 nM; GI50 [2, 13]: 470 nM; GI50 [2, 14]: 454 nM; GI50 [2, 15]: 850 nM; GI50 [2, 16]: 114 nM; GI50 [2, 17]: 392 nM; GI50 [2, 18]: 3200 nM; GI50 [2, 19]: 1210 nM; pIC50 (EGFR L858R/T790M): < 5.30; pIC50 (EGFR (d746-750 C797S)): < 5.30; pIC50 (EGFR L858R): < 5.30; pIC50 (EGFR wild type): < 5.30; pIC50 (EGFR (C797S L858R)): < 5.30 | Cc1cc2cc(n1)-c1cnn(C)c1OCCN1CC3CCC(C3)(C1)n1c(nc3ccc(N4CCC(N5CCOCC5)C4)cc31)NC2=O (single isomer, unassigned) [Example B44A1]
> 5000 | 2190 | > 5000 | 6.31 | 381 | 57 | 170 | 100 | 125 | 126 | 315 | 136 | > 5000 | 530 | > 5000 | > 5000 | > 5000 |  |  |  |  | CN1CCN(C2CCN(c3ccc4nc5n(c4c3)C34CCC(CN(CCOc6c(cnn6C)-c6cc(cn(C)c6=O)C(=O)N5)C3)C4)C2)CC1 (single isomer, unassigned) [Example A80A2, 15,21-Dimethyl-5-[3-(4-methylpiperazin-1-yl)pyrrolidin-1-yl]-23-oxa-2,9,11,15,20,21,26-heptaazaheptacyclo[24.4.1.1^{1,28}.1^{13,17}.0^{2,10}.0^{3,8}.0^{18,22}]tritriaconta-3,5,7,9,13,17(33),18(22),19-octaene-12,16-dione]
 |  |  |  |  |  |  |  |  |  |  |  |  |  |  |  |  | < 5.30 | 5.89 | 5.44 | pIC50 (EGFR Exon19Del; [12]): < 5.30; GI50 (PC-9; read-out: GI50 PC9): 2300 nM; GI50 [2, 13]: 302 nM; GI50 [2, 14]: 436 nM; GI50 [2, 15]: 776 nM; GI50 [2, 16]: 39 nM; GI50 [2, 17]: 315 nM; GI50 [2, 18]: 2790 nM; GI50 [2, 19]: 348 nM; pIC50 (EGFR L858R/T790M): < 5.30; pIC50 (EGFR (d746-750 C797S)): < 5.30; pIC50 (EGFR L858R): < 5.30; pIC50 (EGFR wild type): < 5.30; pIC50 (EGFR (C797S L858R)): < 5.30 | Cc1cc2cc(n1)-c1cnn(C)c1OCCN1CC3CCC(C3)(C1)n1c(nc3ccc(N4CC[C@H](N(C)C)C4)cc31)NC2=O (single isomer, unassigned) [Example B41A]
> 5000 | 3660 | > 5000 | 6.86 | 387 | 95 | 119 | 188 | 167 | 303 | 364 | 159 | > 5000 | 308 | 1590 | > 5000 | 1280 |  |  |  |  | CN(C)CCN(C)c1ccc2nc3n(c2c1)C12CCC(CN(CCOc4c(cnn4C)-c4cc(cn(C)c4=O)C(=O)N3)C1)C2 (single isomer, unassigned) [Example A85A]
 |  |  |  |  |  |  |  |  |  |  |  |  |  |  |  |  | < 5.30 | 6.54 | 6.32 | pIC50 (EGFR Exon19Del; [12]): < 5.30; GI50 (PC-9; read-out: GI50 PC9): 1480 nM; GI50 [2, 13]: 325 nM; GI50 [2, 14]: 606 nM; GI50 [2, 15]: 750 nM; GI50 [2, 16]: 57 nM; GI50 [2, 17]: 353 nM; GI50 [2, 18]: 931 nM; GI50 [2, 19]: 550 nM; pIC50 (EGFR L858R/T790M): < 5.30; pIC50 (EGFR (d746-750 C797S)): < 5.30; pIC50 (EGFR L858R): < 5.30; pIC50 (EGFR wild type): < 5.30; pIC50 (EGFR (C797S L858R)): < 5.30 | Cc1cc2cc(n1)-c1cnn(C)c1OCCN1CC3CCC(C3)(C1)n1c(nc3ccc(N4CCC(N5CCN(C)CC5)C4)cc31)NC2=O (single isomer, unassigned) [Example B49A]
